# From article PMC4076210, “Discovery of Novel AKT Inhibitors with Enhanced Anti-Tumor Effects in Combination with the MEK Inhibitor” (PLoS ONE, 2014)
# Read-outs that look alike come from different tables or passages of the source.
# Tests used:
# Type in all cases: biochemical
# [1] = biological target: T1, CDK3/cyclinE(h) (Homo sapiens, UniProt Q00526); test: Kinase panel
# T1 construct: purchased Millipore KinaseProfiler
# [2] = biological target: T2, CK2α2(h) (Homo sapiens, UniProt P19784); test: Kinase panel
# T2 construct: purchased Millipore KinaseProfiler
# [3] = biological target: T3, CSK(h) (Homo sapiens, UniProt P41240); test: Kinase panel
# T3 construct: purchased Millipore KinaseProfiler
# T3 sequence (P41240 whole entry): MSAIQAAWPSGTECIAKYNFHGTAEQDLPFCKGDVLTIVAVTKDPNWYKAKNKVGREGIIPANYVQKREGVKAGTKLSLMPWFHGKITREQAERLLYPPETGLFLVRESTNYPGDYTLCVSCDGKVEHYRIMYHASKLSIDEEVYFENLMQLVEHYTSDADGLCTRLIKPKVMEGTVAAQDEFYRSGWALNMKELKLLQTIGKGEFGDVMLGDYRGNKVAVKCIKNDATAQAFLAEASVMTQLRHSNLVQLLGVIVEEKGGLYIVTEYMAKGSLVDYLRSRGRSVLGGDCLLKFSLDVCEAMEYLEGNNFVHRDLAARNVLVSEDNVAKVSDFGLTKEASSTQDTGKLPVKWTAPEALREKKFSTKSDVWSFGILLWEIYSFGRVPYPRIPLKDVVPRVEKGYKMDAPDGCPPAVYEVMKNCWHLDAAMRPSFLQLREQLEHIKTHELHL
# [4] = biological target: T4, DYRK2(h) (Homo sapiens, UniProt Q92630); test: Kinase panel
# T4 construct: purchased Millipore KinaseProfiler
# T4 sequence (Q92630 1-601): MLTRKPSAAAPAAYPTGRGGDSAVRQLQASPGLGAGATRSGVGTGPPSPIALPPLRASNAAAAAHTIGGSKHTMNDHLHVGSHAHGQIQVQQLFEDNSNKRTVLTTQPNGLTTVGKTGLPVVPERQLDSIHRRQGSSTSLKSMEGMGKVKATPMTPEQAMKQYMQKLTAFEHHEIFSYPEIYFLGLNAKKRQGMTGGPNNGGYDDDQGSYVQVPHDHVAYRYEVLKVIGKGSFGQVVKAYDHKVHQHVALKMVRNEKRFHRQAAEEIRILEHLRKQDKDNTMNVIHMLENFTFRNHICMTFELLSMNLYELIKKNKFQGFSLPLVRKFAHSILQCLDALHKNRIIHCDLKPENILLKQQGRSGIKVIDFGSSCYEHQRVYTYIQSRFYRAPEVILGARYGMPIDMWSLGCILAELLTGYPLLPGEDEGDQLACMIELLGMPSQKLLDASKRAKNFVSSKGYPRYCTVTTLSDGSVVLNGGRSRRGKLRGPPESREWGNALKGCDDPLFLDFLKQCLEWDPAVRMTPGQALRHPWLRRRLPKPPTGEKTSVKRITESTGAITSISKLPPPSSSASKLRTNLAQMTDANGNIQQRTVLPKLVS
# [5] = biological target: T5, EGFR(L861Q)(h) (Homo sapiens, UniProt P00533, L861Q); test: Kinase panel
# T5 construct: purchased Millipore KinaseProfiler
# T5 sequence (P00533 25-1210 L861Q): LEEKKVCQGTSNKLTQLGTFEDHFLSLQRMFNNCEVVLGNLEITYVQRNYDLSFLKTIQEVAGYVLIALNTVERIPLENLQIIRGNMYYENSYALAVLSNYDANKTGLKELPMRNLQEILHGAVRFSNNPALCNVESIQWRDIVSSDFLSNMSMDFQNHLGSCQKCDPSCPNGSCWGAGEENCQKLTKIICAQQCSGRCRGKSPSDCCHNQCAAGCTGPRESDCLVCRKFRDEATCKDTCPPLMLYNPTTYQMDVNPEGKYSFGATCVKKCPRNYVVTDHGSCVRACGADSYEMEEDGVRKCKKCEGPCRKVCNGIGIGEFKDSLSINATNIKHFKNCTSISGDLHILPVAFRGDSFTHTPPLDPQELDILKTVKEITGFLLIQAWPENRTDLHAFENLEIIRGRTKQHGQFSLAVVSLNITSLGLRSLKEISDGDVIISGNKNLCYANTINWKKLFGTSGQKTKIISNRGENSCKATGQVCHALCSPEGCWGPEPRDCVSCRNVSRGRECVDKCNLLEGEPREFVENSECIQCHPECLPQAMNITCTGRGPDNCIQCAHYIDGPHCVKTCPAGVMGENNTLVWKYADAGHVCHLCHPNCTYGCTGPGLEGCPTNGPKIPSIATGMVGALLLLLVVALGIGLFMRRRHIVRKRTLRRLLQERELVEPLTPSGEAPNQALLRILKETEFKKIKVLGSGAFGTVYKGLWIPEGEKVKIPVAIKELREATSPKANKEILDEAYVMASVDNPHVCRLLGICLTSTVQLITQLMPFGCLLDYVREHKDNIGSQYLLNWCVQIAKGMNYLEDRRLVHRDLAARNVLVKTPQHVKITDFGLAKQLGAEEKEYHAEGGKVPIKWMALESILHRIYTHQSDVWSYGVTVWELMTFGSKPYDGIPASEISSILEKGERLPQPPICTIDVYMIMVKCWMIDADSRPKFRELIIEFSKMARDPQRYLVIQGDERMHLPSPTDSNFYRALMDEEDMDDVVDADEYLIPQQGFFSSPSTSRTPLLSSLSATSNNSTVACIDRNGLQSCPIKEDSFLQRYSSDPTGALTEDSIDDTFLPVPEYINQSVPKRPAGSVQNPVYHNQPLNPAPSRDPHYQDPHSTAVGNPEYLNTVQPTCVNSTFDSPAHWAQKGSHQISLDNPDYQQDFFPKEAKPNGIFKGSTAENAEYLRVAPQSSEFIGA
# [6] = biological target: T6, IRR(h) (Homo sapiens, UniProt P14616); test: Kinase panel
# T6 construct: purchased Millipore KinaseProfiler
# T6 sequence (P14616 27-1297): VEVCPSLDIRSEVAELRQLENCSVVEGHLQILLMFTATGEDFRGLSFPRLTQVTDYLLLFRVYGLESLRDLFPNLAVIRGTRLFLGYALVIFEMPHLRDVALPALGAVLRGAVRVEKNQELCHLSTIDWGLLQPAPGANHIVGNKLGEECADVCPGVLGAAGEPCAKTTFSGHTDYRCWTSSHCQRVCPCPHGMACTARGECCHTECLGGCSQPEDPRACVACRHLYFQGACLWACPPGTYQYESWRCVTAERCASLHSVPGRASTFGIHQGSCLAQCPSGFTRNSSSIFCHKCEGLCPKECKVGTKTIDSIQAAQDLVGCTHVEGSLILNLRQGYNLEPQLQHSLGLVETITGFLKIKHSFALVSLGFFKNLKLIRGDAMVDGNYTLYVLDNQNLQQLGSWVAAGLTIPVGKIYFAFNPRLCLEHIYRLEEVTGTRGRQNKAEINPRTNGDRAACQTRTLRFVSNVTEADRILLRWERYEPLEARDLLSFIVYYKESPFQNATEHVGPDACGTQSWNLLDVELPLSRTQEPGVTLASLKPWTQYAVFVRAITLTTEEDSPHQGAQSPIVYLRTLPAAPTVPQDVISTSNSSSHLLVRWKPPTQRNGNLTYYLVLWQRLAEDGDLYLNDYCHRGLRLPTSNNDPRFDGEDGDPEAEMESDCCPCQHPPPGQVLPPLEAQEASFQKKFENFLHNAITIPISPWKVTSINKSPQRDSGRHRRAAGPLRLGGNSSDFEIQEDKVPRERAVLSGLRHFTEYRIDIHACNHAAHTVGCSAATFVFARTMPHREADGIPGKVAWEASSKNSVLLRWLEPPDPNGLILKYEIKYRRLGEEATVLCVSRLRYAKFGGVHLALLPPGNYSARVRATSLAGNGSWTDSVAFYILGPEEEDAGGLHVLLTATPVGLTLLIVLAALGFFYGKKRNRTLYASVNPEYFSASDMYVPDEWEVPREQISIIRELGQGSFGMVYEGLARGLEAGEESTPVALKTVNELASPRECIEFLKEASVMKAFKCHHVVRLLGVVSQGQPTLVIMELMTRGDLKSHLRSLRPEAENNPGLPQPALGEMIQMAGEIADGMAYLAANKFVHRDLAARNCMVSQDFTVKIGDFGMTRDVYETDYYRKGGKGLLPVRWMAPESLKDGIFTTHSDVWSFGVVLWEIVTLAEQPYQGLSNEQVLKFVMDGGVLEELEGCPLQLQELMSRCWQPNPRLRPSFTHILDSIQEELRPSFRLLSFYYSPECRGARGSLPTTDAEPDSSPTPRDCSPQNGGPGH
# [7] = biological target: T7, MARK1(h) (Homo sapiens, UniProt Q9P0L2); test: Kinase panel
# T7 construct: purchased Millipore KinaseProfiler
# T7 sequence (Q9P0L2 whole entry): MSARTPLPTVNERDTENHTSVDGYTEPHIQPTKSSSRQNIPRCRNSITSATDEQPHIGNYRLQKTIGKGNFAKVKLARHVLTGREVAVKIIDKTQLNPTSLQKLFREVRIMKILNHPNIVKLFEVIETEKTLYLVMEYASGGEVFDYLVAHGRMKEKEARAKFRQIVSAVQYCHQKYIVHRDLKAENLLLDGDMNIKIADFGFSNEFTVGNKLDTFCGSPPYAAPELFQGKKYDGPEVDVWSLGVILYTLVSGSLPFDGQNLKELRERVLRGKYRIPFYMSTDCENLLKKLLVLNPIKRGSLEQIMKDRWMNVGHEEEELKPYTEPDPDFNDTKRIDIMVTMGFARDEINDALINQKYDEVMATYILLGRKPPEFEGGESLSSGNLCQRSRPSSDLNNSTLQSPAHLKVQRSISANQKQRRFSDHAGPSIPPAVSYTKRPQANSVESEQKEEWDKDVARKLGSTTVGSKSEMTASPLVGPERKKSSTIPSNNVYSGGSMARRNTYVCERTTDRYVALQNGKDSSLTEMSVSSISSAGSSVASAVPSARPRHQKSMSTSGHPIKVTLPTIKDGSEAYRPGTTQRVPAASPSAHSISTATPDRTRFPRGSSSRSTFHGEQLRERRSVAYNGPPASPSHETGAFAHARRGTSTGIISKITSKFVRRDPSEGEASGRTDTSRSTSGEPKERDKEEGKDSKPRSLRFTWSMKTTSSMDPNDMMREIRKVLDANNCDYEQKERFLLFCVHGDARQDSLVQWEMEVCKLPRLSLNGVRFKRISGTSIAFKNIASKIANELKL
# [8] = biological target: T8, MELK(h) (Homo sapiens, UniProt Q14680); test: Kinase panel
# T8 construct: purchased Millipore KinaseProfiler
# T8 sequence (Q14680 whole entry): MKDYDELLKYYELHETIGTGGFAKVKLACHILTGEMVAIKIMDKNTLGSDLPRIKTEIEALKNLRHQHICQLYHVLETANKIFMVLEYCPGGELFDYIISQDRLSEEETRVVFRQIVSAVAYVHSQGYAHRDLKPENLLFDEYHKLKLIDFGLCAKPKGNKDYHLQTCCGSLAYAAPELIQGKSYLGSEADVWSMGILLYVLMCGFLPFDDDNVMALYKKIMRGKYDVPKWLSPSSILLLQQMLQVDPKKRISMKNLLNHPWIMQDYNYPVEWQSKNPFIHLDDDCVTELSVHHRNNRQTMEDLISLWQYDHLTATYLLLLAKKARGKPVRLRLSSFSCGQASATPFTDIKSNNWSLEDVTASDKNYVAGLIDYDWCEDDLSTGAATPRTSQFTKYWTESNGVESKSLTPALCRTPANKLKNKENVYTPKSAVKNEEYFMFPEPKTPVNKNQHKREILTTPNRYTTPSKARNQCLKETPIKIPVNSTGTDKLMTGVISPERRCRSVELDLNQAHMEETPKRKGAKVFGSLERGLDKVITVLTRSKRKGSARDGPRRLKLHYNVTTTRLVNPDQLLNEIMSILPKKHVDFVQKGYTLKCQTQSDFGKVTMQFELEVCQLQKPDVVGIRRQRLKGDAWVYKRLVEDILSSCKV
# [9] = biological target: T9, MRCKβ(h) (Homo sapiens, UniProt Q9Y5S2); test: Kinase panel
# T9 construct: purchased Millipore KinaseProfiler
# [10] = biological target: T10, p70S6K(h) (Homo sapiens, UniProt P23443); test: Kinase panel
# T10 construct: purchased Millipore KinaseProfiler
# [11] = biological target: T11, PKCζ(h) (Homo sapiens, UniProt Q05513); test: Kinase panel
# T11 construct: purchased Millipore KinaseProfiler
# T11 sequence (Q05513 1-592): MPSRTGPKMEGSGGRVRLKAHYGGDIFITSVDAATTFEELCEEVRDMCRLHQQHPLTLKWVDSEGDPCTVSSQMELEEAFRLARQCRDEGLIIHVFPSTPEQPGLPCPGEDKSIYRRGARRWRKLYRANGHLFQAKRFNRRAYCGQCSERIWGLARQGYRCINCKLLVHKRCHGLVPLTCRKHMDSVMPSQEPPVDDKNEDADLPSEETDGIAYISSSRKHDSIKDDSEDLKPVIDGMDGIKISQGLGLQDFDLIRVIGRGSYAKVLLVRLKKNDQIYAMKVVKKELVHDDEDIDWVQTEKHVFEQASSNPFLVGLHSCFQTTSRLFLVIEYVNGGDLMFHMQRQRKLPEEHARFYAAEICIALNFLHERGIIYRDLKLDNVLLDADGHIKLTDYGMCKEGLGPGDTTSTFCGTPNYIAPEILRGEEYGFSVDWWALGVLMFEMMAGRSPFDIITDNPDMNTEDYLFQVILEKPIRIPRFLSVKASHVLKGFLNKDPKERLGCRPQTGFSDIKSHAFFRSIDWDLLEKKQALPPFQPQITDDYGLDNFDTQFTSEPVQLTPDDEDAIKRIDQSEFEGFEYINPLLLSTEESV
# [12] = biological target: T12, Rse(h) (Homo sapiens, UniProt Q06418); test: Kinase panel
# T12 construct: purchased Millipore KinaseProfiler
# T12 sequence (Q06418 41-890): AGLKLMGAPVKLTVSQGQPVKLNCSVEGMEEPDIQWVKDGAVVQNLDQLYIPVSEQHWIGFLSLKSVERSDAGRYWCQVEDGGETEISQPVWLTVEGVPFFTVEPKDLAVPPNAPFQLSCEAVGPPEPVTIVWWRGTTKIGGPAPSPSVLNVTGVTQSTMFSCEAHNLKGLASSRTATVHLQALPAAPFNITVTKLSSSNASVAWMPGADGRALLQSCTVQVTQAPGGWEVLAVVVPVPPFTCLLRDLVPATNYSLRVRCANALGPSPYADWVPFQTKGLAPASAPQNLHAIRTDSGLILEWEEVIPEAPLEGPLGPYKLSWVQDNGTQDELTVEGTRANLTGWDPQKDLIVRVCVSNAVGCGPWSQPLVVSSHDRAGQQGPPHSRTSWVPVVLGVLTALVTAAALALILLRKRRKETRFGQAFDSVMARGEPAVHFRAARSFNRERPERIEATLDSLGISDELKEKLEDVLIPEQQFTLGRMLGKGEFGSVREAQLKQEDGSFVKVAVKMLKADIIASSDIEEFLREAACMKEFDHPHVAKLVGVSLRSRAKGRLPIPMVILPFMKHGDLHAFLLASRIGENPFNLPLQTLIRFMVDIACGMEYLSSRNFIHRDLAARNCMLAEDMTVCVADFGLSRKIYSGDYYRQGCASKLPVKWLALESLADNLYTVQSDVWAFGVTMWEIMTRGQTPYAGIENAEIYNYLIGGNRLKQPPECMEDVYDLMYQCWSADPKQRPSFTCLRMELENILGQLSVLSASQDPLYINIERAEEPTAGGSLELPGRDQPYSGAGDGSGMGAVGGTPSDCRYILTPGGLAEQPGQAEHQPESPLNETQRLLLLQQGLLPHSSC
# [13] = biological target: T13, Snk(h) (Homo sapiens, UniProt Q9NYY3); test: Kinase panel
# T13 construct: purchased Millipore KinaseProfiler
# [14] = biological target: PKCζ (Homo sapiens, UniProt Q05513); test: Kinase IC50 assay
# T1 sequence (Q00526 whole entry): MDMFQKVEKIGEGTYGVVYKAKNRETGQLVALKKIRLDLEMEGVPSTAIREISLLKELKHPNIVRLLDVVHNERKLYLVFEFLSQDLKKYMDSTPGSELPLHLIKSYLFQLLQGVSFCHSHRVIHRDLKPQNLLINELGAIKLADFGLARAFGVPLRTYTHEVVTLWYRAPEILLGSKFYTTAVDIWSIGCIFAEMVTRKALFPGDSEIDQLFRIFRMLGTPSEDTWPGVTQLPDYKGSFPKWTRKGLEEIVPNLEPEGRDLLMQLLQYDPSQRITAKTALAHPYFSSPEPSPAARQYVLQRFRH
# T1 sequence (P24864 whole entry partner): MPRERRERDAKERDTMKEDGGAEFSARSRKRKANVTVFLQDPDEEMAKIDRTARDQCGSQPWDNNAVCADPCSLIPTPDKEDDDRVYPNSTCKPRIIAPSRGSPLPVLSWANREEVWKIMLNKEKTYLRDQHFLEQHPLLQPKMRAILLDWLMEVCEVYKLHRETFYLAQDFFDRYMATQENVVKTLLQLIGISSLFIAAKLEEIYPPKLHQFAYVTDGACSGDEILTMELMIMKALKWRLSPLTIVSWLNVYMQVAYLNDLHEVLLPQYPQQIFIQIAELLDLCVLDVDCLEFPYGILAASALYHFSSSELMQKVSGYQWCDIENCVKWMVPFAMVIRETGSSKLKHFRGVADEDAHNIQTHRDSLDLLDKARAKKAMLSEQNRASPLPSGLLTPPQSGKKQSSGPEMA
structure (smiles),measurement,setting,value
Cn1ncc(Cl)c1-c1cc(C(=O)N[C@H](CN)Cc2cccc(F)c2)sc1Cl [GSK2110183],inhibition at 0.5 µM,[1],0%
same,inhibition at 10 µM,[1],20%
same,inhibition at 0.5 µM,[2],2%
same,inhibition at 10 µM,[2],4%
same,inhibition at 0.5 µM,[3],11%
same,inhibition at 10 µM,[3],15%
same,inhibition at 0.5 µM,[4],2%
same,inhibition at 10 µM,[4],24%
same,inhibition at 0.5 µM,[5],-4%
same,inhibition at 10 µM,[5],21%
same,inhibition at 0.5 µM,[6],-11%
same,inhibition at 10 µM,[6],-8%
same,inhibition at 0.5 µM,[7],26%
same,inhibition at 10 µM,[7],88%
same,inhibition at 0.5 µM,[8],79%
same,inhibition at 10 µM,[8],97%
same,inhibition at 0.5 µM,[9],-4%
same,inhibition at 10 µM,[9],11%
same,inhibition at 0.5 µM,[10],78%
same,inhibition at 10 µM,[10],97%
same,inhibition at 0.5 µM,[11],-4%
same,inhibition at 10 µM,[11],37%
same,inhibition at 0.5 µM,[12],6%
same,inhibition at 10 µM,[12],51%
same,inhibition at 0.5 µM,[13],-8%
same,inhibition at 10 µM,[13],18%
same,IC50,[14],> 1000 nM
Cn1ncc(Cl)c1-c1cc(C(=O)N[C@H](CN)Cc2ccc(F)c(F)c2)oc1Cl [GSK2141795],inhibition at 0.5 µM,"[1]; 0.5 µM, read-out: % Inhibition",-13%
same,inhibition at 10 µM,"[1]; 10 µM, read-out: % Inhibition",30%
same,inhibition at 0.5 µM,"[2]; 0.5 µM, read-out: % Inhibition",1%
same,inhibition at 10 µM,"[2]; 10 µM, read-out: % Inhibition",-5%
same,inhibition at 0.5 µM,"[3]; 0.5 µM, read-out: % Inhibition",0%
same,inhibition at 10 µM,"[3]; 10 µM, read-out: % Inhibition",-14%
same,inhibition at 0.5 µM,"[4]; 0.5 µM, read-out: % Inhibition",16%
same,inhibition at 10 µM,"[4]; 10 µM, read-out: % Inhibition",64%
same,inhibition at 0.5 µM,"[5]; 0.5 µM, read-out: % Inhibition",-13%
same,inhibition at 10 µM,"[5]; 10 µM, read-out: % Inhibition",21%
same,inhibition at 0.5 µM,"[6]; 0.5 µM, read-out: % Inhibition",-16%
same,inhibition at 10 µM,"[6]; 10 µM, read-out: % Inhibition",-11%
same,inhibition at 0.5 µM,"[7]; 0.5 µM, read-out: % Inhibition",-11%
same,inhibition at 10 µM,"[7]; 10 µM, read-out: % Inhibition",53%
same,inhibition at 0.5 µM,"[8]; 0.5 µM, read-out: % Inhibition",80%
same,inhibition at 10 µM,"[8]; 10 µM, read-out: % Inhibition",97%
same,inhibition at 0.5 µM,"[9]; 0.5 µM, read-out: % Inhibition",-8%
same,inhibition at 10 µM,"[9]; 10 µM, read-out: % Inhibition",3%
same,inhibition at 0.5 µM,"[10]; 0.5 µM, read-out: % Inhibition",88%
same,inhibition at 10 µM,"[10]; 10 µM, read-out: % Inhibition",98%
same,inhibition at 0.5 µM,"[11]; 0.5 µM, read-out: % Inhibition",5%
same,inhibition at 10 µM,"[11]; 10 µM, read-out: % Inhibition",74%
same,inhibition at 0.5 µM,"[12]; 0.5 µM, read-out: % Inhibition",2%
same,inhibition at 10 µM,"[12]; 10 µM, read-out: % Inhibition",33%
same,inhibition at 0.5 µM,"[13]; 0.5 µM, read-out: % Inhibition",-12%
same,inhibition at 10 µM,"[13]; 10 µM, read-out: % Inhibition",15%
same,IC50,[14],> 1000 nM
